According to patent publication US20160257697A1, “THIOPHENE-SUBSTITUTED TETRACYCLIC COMPOUNDS AND METHODS OFUSE THEREOF FOR THE TREATMENT OF VIRAL DISEASES” (priority 2013, published 2016):
Like-named read-outs stand apart in the source and are kept apart here.

Legend:
Test in all cases: microbe, parasite or virus in culture
Assay type in all cases: cell-based, Hepatitis C virus (HCV)
HCV replicon 2B = details: read-out: 2B IC50, Replicon Assay A
Experimental: (§1) To measure cell-based anti-HCV activity of compounds of the present invention, two complimentary assays were employed using various replicons. In the first assay (“Replicon Assay A”), replicon cells were seeded at 2000 cells/well in 384-well 384-well flat bottom tissue culture treated clear bottom plate (Corning 3707) in the presence of the test compound. […] The final concentration of DMSO was 0.5%. Fetal bovine serum was 5%, in the assay media. Cells were harvested on day 3 by removing media and washing the cells with a suitable wash buffer. The cells are lysed with the addition of 1× Qiagen lysis buffer (Cat #1062731). The replicon RNA level was measured using real time PCR (TaqMan® EZ RT-PCR, Applied Biosystems 403028) with the following primers and probes: […]
(§2) Cyclophilin RNA was used as endogenous control and was amplified in the same reaction as NS5B (multiplex PCR). The real-time RT-PCR reactions were run on ABI PRISM 7900HT Sequence Detection System using the following program: 50° C. for 2 minutes, 60° C. for 30 minutes, 95° C. for 5 minutes, 40 cycles of 94° C. for 20 sec, 55° C. for 1 minutes.
(§3) The amount of HCV replicon RNA per cell is quantified using a linear regression curve for a known nanogram (ng) amount of HCV replicon total RNA. This is established by plotting the Cycle Threshold values (Ct) from the Neo probe and primer set versus the log (ng) for each HCV replicon total RNA standard. The amount of HCV RNA for each replicon sample is calculated by taking the sample's Ct value, minus the line intercept, divided by the slope of the line. Similarly, the amount of Cyclophilin mRNA per cell is also quantified using a linear regression curve for a known nanogram (ng) amount of HCV replicon total RNA. Again, this is established by plotting the Cycle Threshold values (Ct) from the Cyclophilin probe and primer set versus the log (ng) for each HCV replicon total RNA standard.
(§4) Data for replicons 1A, 1AY93H and 2B were obtained using Replicon Assay A and data for replicons 1AQ30D and 1B were obtained using Replicon Assay B.

HCV replicon 1AY93H = details: read-out: 1A Y93H IC50, Replicon Assay A
Experimental: as §1, §2, §3, §4

HCV replicon 1A = details: Replicon Assay A
Experimental: as §1, §2, §3, §4

[1] = Hepatitis C virus, HCV replicon 1A

Row | SMILES | IC50 (HCV replicon 2B; replicon 2B) | IC50 (HCV replicon 1A; replicon 1A) | IC50 (HCV replicon 2B; HCV replicon 2B) | further results
1 | COC(=O)NC(C(=O)N1CCC[C@H]1c1ncc(-c2ccc3c(c2)cc2n3C(c3ccc(C(F)F)s3)Oc3cc(-c4cnc([C@@H]5CCCN5C(=O)[C@@H](NC(=O)OC)C(C)C)[nH]4)cc(F)c3-2)[nH]1)C1C[C@@H](C)O[C@@H](C)C1 (single isomer, unassigned) [Compound 265] | 0.25 nM |  |  | IC50 (HCV replicon 1AY93H; replicon 1AY93H): 0.16 nM
2 | COC(=O)NC(C(=O)N1CCC[C@H]1c1ncc(-c2ccc3c(c2)cc2n3C(c3ccc(C4CC4)s3)Oc3cc(-c4cnc([C@@H]5CCCN5C(=O)[C@@H](NC(=O)OC)C(C)C)[nH]4)cc(F)c3-2)[nH]1)C1CCO[C@@H](C)C1 (single isomer, unassigned) [Compound 402] | 0.0054 nM | 0.0034 nM |  | 
3 | COC(=O)N[C@H](C(=O)N1CCC[C@H]1c1ncc(-c2cc(F)c3c(c2)OC(c2ccc(C4CC4(F)F)s2)n2c-3cc3cc(-c4cnc([C@@H]5CCCN5C(=O)[C@@H](NC(=O)OC)C(C)C)[nH]4)ccc32)[nH]1)C(C)C (single isomer, unassigned) [Compound 118] | 0.97 nM |  |  | IC50 (HCV replicon 1A; Hepatitis C virus, replicon 1A): 0.0012 nM
4 | COC(=O)NC(C(=O)N1CCC[C@H]1c1ncc(-c2ccc3c(c2)cc2n3C(c3ccc(C4CC4)s3)Oc3cc(-c4cnc([C@@H]5C[C@H]6C[C@H]6N5C(=O)[C@@H](NC(=O)OC)C(C)C)[nH]4)cc(F)c3-2)[nH]1)C1C[C@@H](C)O[C@@H](C)C1 (single isomer, unassigned) [Compound 536] |  |  | 0.0219 nM | IC50 (HCV replicon 1A; [1]): 0.00272 nM
5 | COC(=O)NC(C(=O)N1[C@@H]2C[C@@H]2C[C@H]1c1ncc(-c2ccc3c(c2)cc2n3C(c3cc4ccccc4s3)Oc3cc(-c4cnc([C@@H]5CCCN5C(=O)[C@@H](NC(=O)OC)C(C)C)[nH]4)cc(F)c3-2)[nH]1)C1C[C@@H](C)O[C@@H](C)C1 (single isomer, unassigned) [Compound 647] |  |  | 0.153 nM | IC50 (HCV replicon 1A; [1]): 0.0026 nM
6 | COC(=O)NC(C(=O)N1[C@@H]2C[C@@H]2C[C@H]1c1ncc(-c2ccc3c(c2)cc2n3C(c3ccc(C(F)F)s3)Oc3cc(-c4cnc([C@@H]5CCCN5C(=O)[C@@H](NC(=O)OC)C(C)C)[nH]4)cc(F)c3-2)[nH]1)C1C[C@@H](C)O[C@@H](C)C1 (single isomer, unassigned) [Compound 286] | 0.018 nM |  |  | IC50 (HCV replicon 1A; Hepatitis C virus, replicon 1A): 0.001 nM
7 | COCc1ccc(C2Oc3cc(-c4cnc([C@@H]5CCCN5C(=O)[C@@H](NC(=O)OC)C(C)C)[nH]4)cc(F)c3-c3cc4cc(-c5c[nH]c([C@@H]6CCCN6C(=O)[C@@H](NC(=O)OC)C(C)C)n5)ccc4n32)s1 (single isomer, unassigned) [Compound 512] |  |  | 0.15 nM | IC50 (HCV replicon 1A; HCV replicon 1A): 0.00282 nM
8 | COC(=O)N[C@H](C(=O)N1CCC[C@H]1c1ncc(-c2cc(F)c3c(c2)OC(c2cc(C)c(C)s2)n2c-3cc3cc(-c4cnc([C@@H]5C[C@H]6C[C@H]6N5C(=O)[C@@H](NC(=O)OC)C(C)C)[nH]4)ccc32)[nH]1)C(C)C (single isomer, unassigned) [Compound 507] |  |  | 1.88 nM | IC50 (HCV replicon 1AY93H; HCV replicon 1A Y93H): 0.0896 nM
9 | COC(=O)N[C@H](C(=O)N1CCC[C@H]1c1ncc(-c2cc(F)c3c(c2)OC(c2ccc(C4CCCCC4)s2)n2c-3cc3cc(-c4cnc([C@@H]5CCCN5C(=O)[C@@H](NC(=O)OC)C(C)C)[nH]4)ccc32)[nH]1)C(C)C (single isomer, unassigned) [Compound 528] |  |  | 8.81 nM | IC50 (HCV replicon 1A; [1]): 0.00883 nM
10 | COC(=O)N[C@H](C(=O)N1CCC[C@H]1c1ncc(-c2cc(F)c3c(c2)OC(c2cc(C)c(C)s2)n2c-3cc3cc(-c4cnc([C@@H]5C[C@H]6C[C@H]6N5C(=O)[C@@H](NC(=O)OC)C(C)C)[nH]4)ccc32)[nH]1)C(C)C (single isomer, unassigned) [Compound 509] |  |  | 6.82 nM | IC50 (HCV replicon 1AY93H; HCV replicon 1A Y93H): 6.12 nM
11 | COC(=O)NC(C(=O)N1CCC[C@H]1c1ncc(-c2ccc3c(c2)cc2n3C(c3ccc(C4CC4)s3)Oc3cc(-c4cnc([C@@H]5CCCN5C(=O)[C@@H](NC(=O)OC)C(C)C)[nH]4)cc(F)c3-2)[nH]1)C1CCCCO1 (single isomer, unassigned) [Compound 341] | 1.24 nM |  |  | IC50 (HCV replicon 1AY93H; replicon 1AY93H): 0.52 nM
12 | CCc1ccc(C2Oc3cc(-c4cnc([C@@H]5CCCN5C(=O)[C@@H](NC(=O)OC)C(C)C)[nH]4)cc(F)c3-c3cc4cc(-c5cnc([C@@H]6C[C@@H](F)CN6C(=O)C(NC(=O)OC)C6CCOC(C)(C)C6)[nH]5)ccc4n32)s1 (single isomer, unassigned) [Compound 255] | 3.63 nM |  |  | IC50 (HCV replicon 1AY93H; replicon 1AY93H): 0.084 nM
13 | COC(=O)N[C@H](C(=O)N1CCC[C@H]1c1ncc(-c2cc(F)c3c(c2)OC(c2ccc(C(CF)CF)s2)n2c-3cc3cc(-c4cnc([C@@H]5CCCN5C(=O)[C@@H](NC(=O)OC)C(C)C)[nH]4)ccc32)[nH]1)C(C)C (single isomer, unassigned) [Compound 121] | 0.17 nM | 0.0012 nM |  | 
14 | COC(=O)NC(C(=O)N1CCC[C@H]1c1ncc(-c2cc(F)c3c(c2)OC(c2ccc(C4CC4)s2)n2c-3cc3cc(-c4cnc([C@@H]5C[C@H]6C[C@H]6N5C(=O)[C@@H](NC(=O)OC)C(C)C)[nH]4)ccc32)[nH]1)C(C)(C)F (single isomer, unassigned) [Compound 99] | 1.55 nM |  |  | IC50 (HCV replicon 1AY93H; replicon 1AY93H): 0.53 nM
15 | CCc1ccc(C2Oc3cc(-c4cnc([C@@H]5CCCN5C(=O)[C@@H](NC(=O)OC)C(C)C)[nH]4)ccc3-c3c(F)c4cc(-c5cnc([C@@H]6CCCN6C(=O)[C@@H](NC(=O)OC)C(C)C)[nH]5)ccc4n32)s1 (single isomer, unassigned) [Compound 601] |  |  | 1.24 nM | IC50 (HCV replicon 1AY93H; HCV replicon 1A Y93H): 4 nM
16 | COC(=O)NC(C(=O)N1CCC[C@H]1c1ncc(-c2ccc3c(c2)cc2n3C(c3ccc(C4CC4)s3)Oc3cc(-c4cnc([C@@H]5CCCN5C(=O)[C@@H](NC(=O)OC)C(C)C)[nH]4)cc(F)c3-2)[nH]1)C1CCOC2(CC2)C1 (single isomer, unassigned) [Compound 179] | 4.63 nM | 0.0012 nM |  | 
17 | COC(=O)NC(C(=O)N1CCC[C@H]1c1ncc(-c2cc(F)c3c(c2)OC(c2ccc(C4CC4)s2)n2c-3cc3cc(-c4cnc([C@@H]5CCCN5C(=O)[C@@H](NC(=O)OC)C(C)C)[nH]4)ccc32)[nH]1)C(C)(C)F (single isomer, unassigned) [Compound 68] | 1.12 nM |  |  | IC50 (HCV replicon 1AY93H; replicon 1AY93H): 0.12 nM
18 | COC(=O)NC(C(=O)N1CCC[C@H]1c1ncc(-c2ccc3c(c2)cc2n3C(c3ccc(C4CC4)s3)Oc3cc(-c4cnc([C@@H]5CCCN5C(=O)[C@@H](NC(=O)OC)C(C)C)[nH]4)cc(F)c3-2)[nH]1)C1CCOC2(CC2)C1 (single isomer, unassigned) [Compound 177] | 0.016 nM | 0.0014 nM |  | 
19 | COC(=O)N[C@H](C(=O)N1CCC[C@H]1c1ncc(-c2cc(F)c3c(c2)OC(c2ccc(C(C)CF)s2)n2c-3cc3cc(-c4cnc([C@@H]5CCCN5C(=O)[C@@H](NC(=O)OC)C(C)C)[nH]4)ccc32)[nH]1)C(C)C (single isomer, unassigned) [Compound 333] | 0.0314 nM | 0.001 nM |  | 
20 | COC(=O)N[C@H](C(=O)N1CCC[C@H]1c1ncc(-c2cc(F)c3c(c2)OC(c2ccc(C(C)C(F)(F)F)s2)n2c-3cc3cc(-c4cnc([C@@H]5CCCN5C(=O)[C@@H](NC(=O)OC)C(C)C)[nH]4)ccc32)[nH]1)C(C)C (single isomer, unassigned) [Compound 133] | 0.15 nM | 0.002 nM |  | 
21 | COC(=O)NC(C(=O)N1CCC[C@H]1c1ncc(-c2ccc3c(c2)cc2n3C(c3ccc(C4CC4)s3)Oc3cc(-c4cnc([C@@H]5CCCN5C(=O)[C@@H](NC(=O)OC)C(C)C)[nH]4)cc(F)c3-2)[nH]1)C1CCOC2(CC2)C1 (single isomer, unassigned) [Compound 178] | 3.4 nM | 0.0017 nM |  | 
22 | COC(=O)NC(C(=O)N1CCC[C@H]1c1ncc(-c2ccc3c(c2)cc2n3C(c3ccc(C4CC4)s3)Oc3cc(-c4cnc([C@@H]5CCCN5C(=O)[C@@H](NC(=O)OC)C(C)C)[nH]4)cc(F)c3-2)[nH]1)C1CCO[C@@H](C)C1 (single isomer, unassigned) [Compound 401] | 0.0064 nM | 0.0018 nM |  | 
23 | COCc1ccc(C2Oc3cc(-c4cnc([C@@H]5CCCN5C(=O)[C@@H](NC(=O)OC)C(C)C)[nH]4)cc(F)c3-c3cc4cc(-c5cnc([C@@H]6CCCN6C(=O)[C@@H](NC(=O)OC)[C@@H]6C[C@@H](C)O[C@@H](C)C6)[nH]5)ccc4n32)s1 (single isomer, unassigned) [Compound 534] |  |  | 0.02 nM | IC50 (HCV replicon 1A; HCV replicon 1A): 0.00692 nM
